Test system: DAMI cells
Experiment: Cell-penetration activity of Fam-labeled CPP5s, cellular fluorescence by FACS and/or microscopy
Assay type: cell-based, human
Details: peptides Fam-labeled on the N-terminus, 200 μM, 3 h, 37 °C, fluorescence intensity of cells by FACS, mean of triplicate samples
Procedure: Figure 1 Cell-penetration activity of CPP5s. a. List of cell-penetrating penta-peptides (CPP5s). […] Peptide sequences are color-coded to show the constant amphipathic amino acid arrangement in each CPP5. Cell-penetration activity was determined by fluorescence intensity of cells (DAMI cells: a human megakaryocytic cancer cell line) incubated with fluorescein (Fam)-labeled peptides (200 μM) for 3 h at 37 °C as described in Experimental Procedures. Fam was labeled on the N-terminus of all peptides examined. Cells were analyzed by FACS and/or microscopy. The activity of each peptide is shown as a percentage of the activity of KLPVM. Each value represents the mean of triplicate samples. Cell entry of some peptides was confirmed by microscopy only, and these peptides are indicated with a ‘+’ without a percentage value. For cytoprotective activity (right column), the information is based on previous studies and the activity was determined by the protection of cells from Bax overexpression and other apoptotic stimuli such as etoposide treatment. b to e. Cell entry of Fam-labeled VPTLK, KLPVM, TAT, and poly-arginine (R8). HeLa cells were incubated with Fam-labeled VPTLK, KLPVM (200 μM), Fam-TAT (10 μM), and Fam-R8 (10 μM) for 1 h at 37 °C. Images are at 20× magnification. f. Comparison of the cytotoxicity of CPP5 and TAT. Primary cultured mouse embryonic fibroblast (MEF) cells were treated with various concentrations of peptides for 24 h as indicated. Then, apoptosis was analyzed as described in Experimental Procedures. Each bar represents the mean of triplicate samples and standard error. TEXT PRINTED IN THE PICTURE: (a) VPMLK: Cell Penetration (%): 97 ± 4.3; Cytoprotection: + | (a) VPTLK: Cell Penetration (%): 61 ± 1.7; Cytoprotection: + | (a) VPALR: Cell Penetration (%): 79 ± 1.5; Cytoprotection: + | (a) VSALK: Cell Penetration (%): 90 ± 3; Cytoprotection: N.D. | (a) PMLKE: Cell Penetration (%): 65 ± 3.7; Cytoprotection: + | (a) VPALK: Cell Penetration (%): 71 ± 2.2; Cytoprotection: + | (a) VSLKK: Cell Penetration (%): +; Cytoprotection: - | (a) VSGKK: Cell Penetration (%): +; Cytoprotection: - | (a) KLPVM: Cell Penetration (%): 100 ± 2.3; Cytoprotection: - | (a) IPMIK: Cell Penetration (%): 47 ± 1.4; Cytoprotection: - | (a) KLGVM: Cell Penetration (%): +; Cytoprotection: - | (a) KLPVT: Cell Penetration (%): +; Cytoprotection: - | (a) VPMIK: Cell Penetration (%): +; Cytoprotection: N.D. | (a) IPALK: Cell Penetration (%): +; Cytoprotection: N.D. | (a) IPMLK: Cell Penetration (%): +; Cytoprotection: N.D. | (a) VPTLQ: Cell Penetration (%): 70 ± 4; Cytoprotection: - | (a) QLPVM: Cell Penetration (%): +; Cytoprotection: - | (a) ELPVM: Cell Penetration (%): +; Cytoprotection: - | (a) VPTLE: Cell Penetration (%): 80 ± 1.9; Cytoprotection: N.D.
CPP5s that were designed based on the Bax-binding domain of Ku70 of several species are named Bax-Inhibiting Peptides (BIPs); they are VPMLK, PMLKE, VPTLK, VPALR, and VPALK. VPMLK and PMLKE were designed from human Ku70, and the same sequence exists in the Ku70 homologues of dog and monkey. VPTLK and VPALR are based on mouse and rat Ku70, respectively. VPALK was designed from cattle Ku70, and the same sequence exists in Ku70 of the African clawed frog. Cytoprotective activities of these BIPs have been previously reported, both in cell culture and animal models. […] The observed variation in cell-entering activity of Fam-labeled-CPP5s is shown in Figure 1a as a percentage of the activity of KLPVM. In all cases, Fam was attached to the N-terminal amino acid. For some CPP5s, cell-penetration activity was confirmed by detection of an intracellular fluorescent signal by microscopy. These latter results are indicated with ‘+’ symbols, and a quantitative comparison with the activity of KLPVM was not performed. […]

## VPTLK
  Cell Penetration (%), percentage of the activity of KLPVM: 61 ± 1.7%

Reference: article PMC3045100, “Cell-Penetrating Penta-Peptides (CPP5s): Measurement of Cell Entry and Protein-Transduction Activity” (Pharmaceuticals, 2010)
